Measured values as given in PubChem BioAssay AID256 (DTP/NCI, 2004).
Toxic doses and inconclusive results are not listed. Rule for the calls: active = survival T/C of 150% or more; inactive = T/C below 125% in these data.

System: CD2F1 mice, L1210 leukemia ip, survival T/C
Assay: NCI In Vivo Anticancer Drug Screen. Data for tumor model L1210 Leukemia (intraperitoneal) in CD2F1 (CDF1) mice
Conditions: endpoint: mean survival time, schedule: Q01DX001 (ip), vehicle: saline, higher = longer survival
Summary of the method: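 Vehicle-treated tumor-bearing mice served as controls (C) for compound-treated mice (T). Reported figure is T divided by C.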

Measured: T/C

CCNCc1ccc2c(c1)OCO2
inactive: dose: 75.0 mg/kg/injection 101 % of control | dose: 150.0 mg/kg/injection 101 % of control | dose: 300.0 mg/kg/injection 103 % of control

O=C(CBr)c1cc(-c2ccc(Cl)cc2)nc2c(Cl)cc(Cl)cc12
inactive: dose: 100.0 mg/kg/injection 91 % of control | dose: 200.0 mg/kg/injection 97 % of control | dose: 400.0 mg/kg/injection 103 % of control
